Assay results reported in patent US20080145433A1 (GILEAD COLORADO, INC., priority 2006, published 2008).
Where two headings read alike, the source gives them in different places.

Tests used:
ETB [1] = biological target: T1, ETB (Homo sapiens, UniProt P24530); details: Riechers et al (1996); read-out: affinity for ETB (KiB); cited from earlier work
T1 sequence (P24530 27-442): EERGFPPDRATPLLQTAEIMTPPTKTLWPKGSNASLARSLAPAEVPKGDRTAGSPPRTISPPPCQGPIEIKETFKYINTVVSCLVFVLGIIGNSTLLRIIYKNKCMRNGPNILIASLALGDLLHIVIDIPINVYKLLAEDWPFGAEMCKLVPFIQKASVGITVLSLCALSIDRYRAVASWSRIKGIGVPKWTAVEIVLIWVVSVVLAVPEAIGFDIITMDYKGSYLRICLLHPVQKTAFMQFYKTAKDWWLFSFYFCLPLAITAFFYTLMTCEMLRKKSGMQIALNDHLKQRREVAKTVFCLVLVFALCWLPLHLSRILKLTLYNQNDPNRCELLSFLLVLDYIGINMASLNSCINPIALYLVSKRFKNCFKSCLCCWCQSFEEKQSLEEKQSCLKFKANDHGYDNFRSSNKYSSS

ETA [2] = biological target: T2, ETA (Homo sapiens, UniProt P25101); assay: ETA receptor affinity reported by Riechers et al (1996); format: binding; details: calculated from Riechers et al (1996) data
T2 sequence (P25101 21-427): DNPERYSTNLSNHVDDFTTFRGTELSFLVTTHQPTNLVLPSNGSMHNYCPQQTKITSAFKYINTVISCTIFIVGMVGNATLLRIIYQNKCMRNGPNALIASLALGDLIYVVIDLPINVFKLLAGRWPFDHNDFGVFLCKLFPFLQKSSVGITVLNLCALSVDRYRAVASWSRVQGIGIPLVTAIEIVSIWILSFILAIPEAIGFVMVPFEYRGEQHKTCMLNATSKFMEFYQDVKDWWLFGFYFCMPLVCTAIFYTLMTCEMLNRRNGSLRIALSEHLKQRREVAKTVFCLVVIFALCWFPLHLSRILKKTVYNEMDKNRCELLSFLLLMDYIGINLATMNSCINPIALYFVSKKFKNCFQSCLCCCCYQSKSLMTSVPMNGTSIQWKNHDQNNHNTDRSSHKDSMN

ETA [3] = biological target: T2, ETA; details: Riechers et al (1996); read-out: affinity for ETA (KiA); cited from earlier work
[4] = PK of darusentan tablets, single oral dose, congestive heart failure patients (Example 3); format: in vivo, human; details: CHF patients, single oral doses 10-300 mg
Excerpt: This was a multi-center, prospective, uncontrolled clinical trial. […] At least 12 patients received each dose, in addition to their normal medication for CHF.
Arithmetic means and standard deviations of Cmax, Tmax and AUC, based on individual values of these parameters calculated by standard PK methods, are presented in Table 3. As this was a single dose study, Cmin was not determined.

ETA [5] = biological target: T2, ETA; details: Lip (2001); cited from earlier work
ETA [6] = biological target: T2, ETA; assay: 125[I]-endothelin-1 receptor binding cold ligand competition curves in human myocardial membranes (ETA); design: human myocardial membranes prepared from failing and non-failing left ventricles; from tissue; host or cells: human left ventricular myocardium (failing and non-failing), membranes; details: mean of 8 assays
ETB [7] = biological target: T1, ETB; assay: 125[I]-endothelin-1 receptor binding cold ligand competition curves in human myocardial membranes (ETB); design: human myocardial membranes prepared from failing and non-failing left ventricles; from tissue; host or cells: human left ventricular myocardium (failing and non-failing), membranes; details: 10 μM Gpp(NH)p, 4-hour incubation, steady-state binding, mean of 8 assays
[8] = published values, Boss et al. (2001); cited from earlier work

Pharmacokinetics: dose dependence of Cmax and AUC [4] | Ki (ETA [6]; 10 μM Gpp(NH)p, 4-hour incubation, steady-state binding) [nM] | ETA selectivity (fold) (ETA [6]) | Ki (ETB [7]) [nM] | SMILES | Ki (ETB [1]) [nM] | ETA/ETB selectivity (KiB/KiA) (ETA [2]) | Ki (ETA [3]) [nM] | ETA/ETB selectivity (ETA [5]) | T1/2 [8] [h]
– | – | – | – | COc1cc(OC)nc(OC(C(=O)O)C(OC)(c2ccccc2)c2ccccc2)n1 (racemic) [racemate, 2-(4,6-dimethoxypyrimidin-2-yloxy)-3-methoxy-3,3-diphenylpropionic acid] | 371 | about 62 | 6 | – | –
appeared to be linear | 0.178 ± 0.055 | 1181 ± 148 | 216 ± 85 | COc1cc(OC)nc(O[C@H](C(=O)O)C(OC)(c2ccccc2)c2ccccc2)n1 [darusentan, (+)-(S)-2-(4,6-dimethoxypyrimidin-2-yloxy)-3-methoxy-3,3-diphenylpropionic acid] | – | – | 3 | about 160 | 10 to 12
– | – | – | – | COc1cc(OC)nc(O[C@@H](C(=O)O)C(OC)(c2ccccc2)c2ccccc2)n1 [less potent enantiomer] | – | – | 150 | – | –
